# Experimental data reported in patent US20170355760A1, “METHODS FOR MODULATING THE GLYCOSYLATION PROFILE OF RECOMBINANT PROTEINS USING SUGARS” (AbbVie Inc., priority 2014, published 2017).
# Key:
# Type in all cases: cell-based, Chinese Hamster
# [1] = tested on: CHO cell line 1; experiment: Viable cell density and cell viability of shaker flask cultures (trypan blue exclusion, Cedex); conditions: for peak VCD compared to control: 50 mM supplementation; for cell viability profile: 1-50 mM supplementation; for cell growth compared to the unsupplemented control: sugar 1, 10, 25, 50 mM in basal media, shaker flask
# Procedure: (§1) A recombinant Chinese Hamster Ovary (CHO) cell line (Cell Line 1) expressing a humanized monoclonal antibody (Antibody 1) was evaluated in shaker flask cultures. The cell line was of CHO DUX-B11 origin based on a dhfr (dihydrofolate reductase) expression system, and cultured in a chemically defined basal and chemically-defined feed media. Each of the respective cultures were supplemented with selected monosaccharides and oligosaccharides to evaluate for their potential impact on the resulting N-glycan oligosaccharide profile. All sugars were purchased from Sigma-Aldrich (St. Louis, Mo.), and dissolved at the concentrations referenced below in the cell culture media. Unless specified otherwise, all sugars evaluated were in their D-form. In preparation of the cultures, the cell lines were expanded through seed train inoculums to generate enough cells for inoculation.
# Viable cell density (VCD) and cell viability values were measured through trypan blue exclusion via Cedex automated cell counters (Roche Applied Science, Indianapolis, Ind.). Initial viable cell density and viability in the cultures were targeted towards the same value. Immediately after inoculation, only a handful of each of the shake flasks were sampled for VCD and viability, and the results were averaged. All Day 0 values amongst these flasks were thus reported to be at this average. The cultures were harvested on Process Days 9-10, or when cell viability dropped below 50%, whichever occurred first.
# [2] = tested on: CHO cell line 1; experiment: Harvest antibody titer (Poros A Protein A affinity HPLC); conditions: for harvest titer compared to unsupplemented control: 1-50 mM supplementation
# Procedure: as §1
# Antibody titers were measured from crude cell culture harvests on a Poros A™ (Life Technologies, Carlsbad, Calif.) affinity column using an Agilent (Santa Clara, Calif.) 1200 Series HPLC, or equivalent, operating with a low pH, step elution gradient with detection at 280 nm. Absolute concentrations were assigned with respect to reference standard calibration curves.
# [3] = tested on: Cell Line 1 expressing a humanized monoclonal antibody (Antibody 1); experiment: N-glycan oligosaccharide profiling of Protein A purified antibody (reduced heavy chain, RP-HPLC/Q-TOF MS); conditions: for redirecting the N-glycan glycoform profile: 250 mL shaker flask cultures, defined supplementation range
# Procedure: as §1
# Purified antibodies subjected to additional analytical characterization were purified using MabSelect™ Protein A (GE Healthcare, Piscataway, N.J.) using a low pH, step elution gradient, followed by neutralization, and subsequently buffer exchanged when necessary using Amicon centrifugal filters (EMD Millipore, Billerica, Mass.) according to the manufacturer's recommended procedure.
# The heavy chain of adalimumab was analyzed using an HPLC (Agilent 1260, Santa Clara, Calif.) with a reversed phase column (Vydac, C4, 1×150 mm, 5μ particle size) coupled to a Q-TOF mass spectrometer (Agilent, 6510). Protein A purified samples from cell culture harvests were first reduced using DTT at 37° C. for 30 minutes. The samples were then loaded using 95% mobile phase A (0.08% formic acid and 0.02% TFA in water) and 5% mobile phase B (0.08% formic acid and 0.02% TFA in acetonitrile), and then eluted using a gradient of increasing levels of mobile phase B. The flow rate was 50 μL/min and the column temperature was set to 60° C. The mass spectrometer was operated in positive ion mode with an ion spray voltage of 4500 volts and a source temperature of 350° C. Resolved peaks centered on the known masses of different N-glycans was subsequently used to identify the different types of N-glycans, and the relative peak heights were used to quantitate their respective levels.
# [4] = 1-50 mM vs unsupplemented control
# [5] = the higher concentrations evaluated
# [6] = each of the concentrations evaluated (1-50 mM)
# [7] = across all supplemented concentrations (1-50 mM)
Structure (SMILES),peak VCD compared to control [1],cell viability profile [1],cell growth compared to the unsupplemented control [1],harvest titer compared to unsupplemented control [2],"G0F N-glycan levels [3, 4]","N-glycan oligosaccharide profile change upon supplementation [3, 4]",redirecting the N-glycan glycoform profile [3],also measured
OC[C@H]1O[C@@H](O[C@@H]2[C@@H](CO)OC(O)(CO)[C@H]2O)[C@H](O)[C@@H](O)[C@H]1O (mixture of isomers) [lactulose],drop in VCD,no adverse impact,only the 50 mM level of this sugar had a slightly adverse impact to cell growth performance,only nominally impacted,approximately equal drop,"lactulose dependent increase in Man5, G0F-GlcNAc, and G1F N-glycans",toward the high mannose type,harvest titer ratio ([2]; 50 mM): 0.89
OC[C@H]1O[C@@H](O[C@H]2[C@H](O)[C@@H](O)C(O)O[C@@H]2CO)[C@H](O)[C@@H](O)[C@H]1O (stereo partly drawn) [lactose],noticeably lower than the control,no adverse impact,no adverse impact towards cell growth performance,small decrease in harvest titers,almost equal drop,,"toward the complex, galactosylated type","relative harvest titer ([2]; 1 mM (lowest across tested concentrations)): 0.87; increase in G1F species ([3]; at most, across 1-50 mM): ≤ 4%; increase in G2F species ([3]; at most, across 1-50 mM): ≤ 2%"
OC[C@H]1O[C@@](CO)(O[C@H]2O[C@H](CO)[C@@H](O)[C@H](O)[C@H]2O)[C@@H](O[C@H]2O[C@H](CO)[C@@H](O)[C@H](O)[C@H]2O)[C@@H]1O [melezitose],drop in peak VCD,no adverse impact,only the 50 mM condition had an adverse impact on cell growth,nominally reduce the harvest titer,,largest % impact on the protein glycosylation profile,"toward the complex, galactosylated type","harvest titer ratio ([2]; 10 mM (lowest result observed)): 0.82; increase in G1F ([3]; 1 mM): 1%; increase in G1F ([3]; 10 mM): 9%; increase in G1F ([3]; 25 mM): 20%; increase in G1F ([3]; 50 mM): 28%; G0 type glycans [3, 4]: almost equal drop in relative value; G2 N-glycan change [3, 4]: mirrored these results, albeit at a much lower overall percent change; Man5 levels ([3]; all tested concentrations): Reduced levels"
OC[C@H]1O[C@H](OC[C@H]2OC(O)(CO)[C@@H](O)[C@@H]2O)[C@H](O)[C@@H](O)[C@@H]1O (stereo partly drawn) [palatinose],,reasonably consistent with each other,only the lowest concentration (1 mM) supported a cell growth profile that closely approximated that of the unsupplemented control,slightly less antibody product,significant decrease,"increase Man5, G0F-GlcNAc, G1F, and G2F N-glycans in a palatinose concentration-dependent manner",toward the high mannose type,"peak VCD compared to the unsupplemented control [1, 5]: lower peak viable cell densities"
O=C(CO)[C@H](O)[C@H](O)[C@H](O)CO [psicose],,no significant changes,,slightly lower compared to the control,dropped in an almost equal fashion,"increase Man5, G0F-GlcNAc, and G1F species in a psicose concentration-dependent manner",toward the high mannose type,"peak VCD compared to the unsupplemented control [1, 6]: lower peak VCD; harvest titer ratio [2, 7]: > 0.88"
OC[C@H]1O[C@H](OC[C@H]2O[C@H](O[C@]3(CO)O[C@H](CO)[C@@H](O)[C@@H]3O)[C@H](O)[C@@H](O)[C@@H]2O)[C@H](O)[C@@H](O)[C@H]1O [raffinose],,closely approximated each other,comparable to the unsupplemented control up to a raffinose concentration of 10 mM,closely approximated each other,,,toward the high mannose type,"peak VCD compared to the unsupplemented control [1, 5]: lower than that of the unsupplemented control; increase in Man5, G0F-GlcNAc, and G1F compared to the unsupplemented control ([3]; concentration-dependent, 1-50 mM): > 2%"
OC[C@H]1O[C@H](O[C@H]2O[C@H](CO)[C@@H](O)[C@H](O)[C@H]2O)[C@H](O)[C@@H](O)[C@@H]1O [trehalose],,not affected,,slightly lower values,significant decrease,more Man5 and G0F-GlcNAc levels,toward the high mannose type,"peak VCD compared to the unsupplemented control [1, 6]: lower peak VCD; harvest titer ratio [2, 7]: > 0.85"
O=C(CO)[C@@H](O[C@H]1O[C@H](CO)[C@@H](O)[C@H](O)[C@H]1O)[C@H](O)[C@H](O)CO [turanose],small nominal drop,did not show a very significant adverse impact,did not show a very significant adverse impact towards cell growth,small drop in harvest titer,,"increase of G1F and G2F species, which came at the expense of the G0F and G0F-GlcNAc species","toward the complex, galactosylated type",drop in harvest titer ([2]; 50 mM (largest drop)): 10%; increase in G1F ([3]; 1 mM): 0.2%; increase in G2F ([3]; 10 mM): 3%; increase in G2F ([3]; 25 mM): 7%; increase in G1F ([3]; 50 mM): 14%
